In article PMC7692337, “Masked Phenolic-Selenium Conjugates: Potent and Selective Antiproliferative Agents Overcoming P-gp Resistance” (Pharmaceuticals, 2020):

Test system: WiDr (colon)
Experiment: Antiproliferative activity, NCI protocol
Format: cell-based, human
Settings: drug resistant line
Procedure: (§1) Organochalcogen derivatives prepared herein were evaluated in vitro as potential antiproliferative agents, using a panel of six human tumour cell lines: A549 (non-small cell lung), HBL-100 (breast), HeLa (cervix), SW1573 (non-small cell lung), as drug sensitive lines, T-47D (breast) and WiDr (colon) as drug resistant lines. In addition to precursors 2, 6, 7, 13, 14, 17, 19, ebselen and cisplatin (CDDP) were used as reference drugs. […] In both cases, the NCI protocol, with minor modifications, was followed; selected data, including the selectivity index (S.I.) can be found in Table 3 and full data in Supporting Information (Table S1).
(§2) The in vitro antiproliferative activity was assayed using minor modifications of the protocol of the National Cancer Institute (NCI) of the United States against the six human solid tumor cell and the non-tumor cell lines tested.
In the case of `N#C[Se]CCCc1ccc2c(c1)OCO2` [Compound 37, 3-(3’,4’-Methylenedioxyphenyl)propyl selenocyanate], the “GI50 WiDr (Colon)” value is reported as “Not soluble”.

Same assay, conditions: drug resistant line; read-out: GI50 WiDr (Colon)
`[NH2][Pt]([NH2])([Cl])[Cl]` [CDDP, cisplatin, reference compound] gave a GI50 of 26 ± 6 µM.
“N-[2′-(3′’,4′’-Dihydroxyphenyl)ethyl]-3-phenylselenopropanamide [Compound 18]” gave a GI50 of 85 ± 21 µM.

Test system: SW1573 (non-small cell lung)
Experiment: Antiproliferative activity, NCI protocol
Format: cell-based, human
Settings: Table S1; read-out: GI50 SW1573 (Lung)
Procedure: as §1, §2
For `[NH2][Pt]([NH2])([Cl])[Cl]` [CDDP, cisplatin, reference compound], the GI50 was 3.4 ± 0.7 µM.
“N-[2′-(3′’,4′’-Dihydroxyphenyl)ethyl]-3-phenylselenopropanamide [Compound 18]” gave a GI50 of 28 ± 4 µM.

Test system: HBL-100 (breast)
Experiment: Antiproliferative activity, NCI protocol
Format: cell-based, human
Settings: not given
Procedure: as §1, §2
In the case of `N#C[Se]CCCc1ccc2c(c1)OCO2` [Compound 37, 3-(3’,4’-Methylenedioxyphenyl)propyl selenocyanate], the “GI50 HBL-100 (Breast)” value is reported as “Not soluble”.

Same assay, conditions: read-out: GI50 HBL-100 (Breast)
Work on `[NH2][Pt]([NH2])([Cl])[Cl]` [CDDP, cisplatin, reference compound] yielded a GI50 of 1.9 ± 0.2 µM.
In the case of “N-[2′-(3′’,4′’-Dihydroxyphenyl)ethyl]-3-phenylselenopropanamide [Compound 18]”, the GI50 is reported as 34 ± 1 µM.

Test system: T-47D (breast)
Experiment: Antiproliferative activity, NCI protocol
Format: cell-based, human
Settings: drug resistant line
Procedure: as §1, §2
For `N#C[Se]CCCc1ccc2c(c1)OCO2` [Compound 37, 3-(3’,4’-Methylenedioxyphenyl)propyl selenocyanate], the “GI50 T-47D (Breast)” value was “Not soluble”.

Same assay, conditions: drug resistant line; read-out: GI50 T-47D (Breast)
With `[NH2][Pt]([NH2])([Cl])[Cl]` [CDDP, cisplatin, reference compound] the GI50 was 15 ± 2 µM.
With “N-[2′-(3′’,4′’-Dihydroxyphenyl)ethyl]-3-phenylselenopropanamide [Compound 18]” the GI50 was 71 ± 5 µM.

Test system: A549 (non-small cell lung)
Experiment: Antiproliferative activity, NCI protocol
Format: cell-based, human
Settings: not given
Procedure: as §1, §2
For `N#C[Se]CCCc1ccc2c(c1)OCO2` [Compound 37, 3-(3’,4’-Methylenedioxyphenyl)propyl selenocyanate], the “GI50 A549 (Lung)” value was “Not soluble”.

Same assay, conditions: read-out: GI50 A549 (Lung)
For `[NH2][Pt]([NH2])([Cl])[Cl]` [CDDP, cisplatin, reference compound], the GI50 was 4.9 ± 0.2 µM.
“N-[2′-(3′’,4′’-Dihydroxyphenyl)ethyl]-3-phenylselenopropanamide [Compound 18]” gave a GI50 of 33 ± 5 µM.

Test system: HeLa (cervix)
Experiment: Antiproliferative activity, NCI protocol
Format: cell-based, human
Settings: not given
Procedure: as §1, §2
In the case of `N#C[Se]CCCc1ccc2c(c1)OCO2` [Compound 37, 3-(3’,4’-Methylenedioxyphenyl)propyl selenocyanate], the “GI50 HeLa (Cervix)” value is reported as “Not soluble”.

Same assay, conditions: read-out: GI50 HeLa (Cervix)
With `[NH2][Pt]([NH2])([Cl])[Cl]` [CDDP, cisplatin, reference compound] the GI50 was 2 ± 0.3 µM.
In the case of “N-[2′-(3′’,4′’-Dihydroxyphenyl)ethyl]-3-phenylselenopropanamide [Compound 18]”, the GI50 is reported as 23 ± 1 µM.

Test system: six human tumour cell lines (A549, HBL-100, HeLa, SW1573, T-47D, WiDr)
Experiment: Antiproliferative activity, panel of six human tumour cell lines
Format: cell-based
Settings: summary over the tested tumour cell lines; highest tested concentration 100 µM
Procedure: as §1, §2
In the case of “N-[2′-(3′’,4′’-Dihydroxyphenyl)ethyl]-3-phenylselenopropanamide [Compound 18]”, the “GI50 over the tumour cell lines (range, bound or words)” value is reported as “moderate antiproliferative properties”.

Test system: not listed separately
Experiment: H2O2 scavenging (phenol red / horseradish peroxidase)
Settings: At 50 µM
Procedure: (§3) In vitro antioxidant properties of key unprotected phenolic derivatives were analyzed using two different methodologies: free radical scavenging capacity, using the DPPH method (2,2-diphenyl-1-picrylhydrazyl), a HAT (hydrogen atom transfer) procedure, widely-used for both natural and synthetic derivatives, and also the capacity for scavenging H2O2, one of the most common ROS in degenerative diseases, including cancer.
Herein, following Bahorun’s methodology, in vitro levels of H2O2 were measured in an indirect fashion, by registering the H2O2-mediated oxidation of phenol red in the presence of horseradish peroxidase, to give a chromophore with a maximum absorption at 610 nm. Accordingly, in the presence of an antioxidant agent, there is an inverse correlation between the observed absorbance, and the scavenging properties. Table 2 depicts the H2O2-scavenging properties of compounds prepared herein, and tested at a final 50 µM concentration.
Reported methodology was used with minor modifications.
In the case of “N-[2′-(3′’,4′’-Dihydroxyphenyl)ethyl]-3-phenylselenopropanamide [Compound 18]”, the “% Scavenging of H2O2” value is reported as 19.0 ± 0.8%.

Test system: BJ-hTert (fibroblasts)
Experiment: Antiproliferative activity on non-tumour cells, NCI protocol
Format: cell-based, human
Settings: non-tumour cell line
Procedure: as §1, §2
With `N#C[Se]CCCc1ccc2c(c1)OCO2` [Compound 37, 3-(3’,4’-Methylenedioxyphenyl)propyl selenocyanate] the “GI50 BJ-hTert (Fibroblasts)” value was “Not soluble”.

Same assay, conditions: non-tumour cell line; read-out: GI50 BJ-hTert (Fibroblasts)
Work on `[NH2][Pt]([NH2])([Cl])[Cl]` [CDDP, cisplatin, reference compound] yielded a GI50 of 14 ± 2 µM.

Test system: not listed separately
Experiment: Free radical scavenging (DPPH method)
Settings: 30 min incubation, absorbance at 515 nm, read-out: EC50 antiradical activity (DPPH)
Procedure: as §3
DPPH is a commercially-available stable free radical commonly used for in vitro testing of radical scavenging properties of antioxidants.
Reported methodology was used with minor modifications. To a 60 µM methanolic DPPH solution (1.17 mL), the antioxidant solution (5–7 different solutions, 30 µL) or solvent (control, 30 µL) were added. After 30 min. of incubation in the dark, absorbance was measured at 515 nm, and EC50 values were calculated.
“N-[2′-(3′’,4′’-Dihydroxyphenyl)ethyl]-3-phenylselenopropanamide [Compound 18]” showed an EC50 of 23.2 ± 0.6 µM.
